In patent publication US6664260B2, “Heterocyclic ether substituted imidazoquinolines” (3M Innovative Properties Company, priority 2000, dated 2003):
Where a name gives a salt, the structure may show the parent alone.

Experiments:
interferon (α) = assay: Cytokine Induction in Human Cells: interferon (α) secreted by PBMCs, ELISA; assay type: cell-based; set-up: key to Lowest Effective Concentration (μM) Interferon: A “*” indicates that no induction was seen at any of the tested concentrations; generally the highest tested concentration was 10 or 30 μM; conditions: incubated 18 to 24 hours, lowest concentration found to induce interferon; for minimal effective concentration: PBMC
From the text: (§1) An in vitro human blood cell system is used to assess cytokine induction. Activity is based on the measurement of interferon and tumor necrosis factor (α) (IFN and TNF, respectively) secreted into culture media as described by Testerman et. al. In “Cytokine Induction by the Immunomodulators Imiquimod and S-27609”, Journal of Leukocyte Biology, 58, 365-372 (September, 1995).
(§2) Whole blood from healthy human donors is collected by venipuncture into EDTA vacutainer tubes. Peripheral blood mononuclear cells (PBMCs) are separated from whole blood by density gradient centrifugation using Histopaque®-1077. The PBMCs are washed twice with Hank's Balanced Salts Solution and then are suspended at 3-4×10^6 cells/mL in RPMI complete. The PBMC suspension is added to 48 well flat bottom sterile tissue culture plates (Costar, Cambridge, Mass. or Becton Dickinson Labware, Lincoln Park, N.J.) containing an equal volume of RPMI complete media containing test compound.
(§3) The compounds are solubilized in dimethyl sulfoxide (DMSO). The DMSO concentration should not exceed a final concentration of 1% for addition to the culture wells
(§4) The solution of test compound is added at 60 μM to the first well containing RPMI complete and serial 3 fold dilutions are made in the wells. The PBMC suspension is then added to the wells in an equal volume, bringing the test compound concentrations to the desired range (0.12 to 30 μM). The final concentration of PBMC suspension is 1.5-2×10^6 cells/mL. The plates are covered with sterile plastic lids, mixed gently and then incubated for 18 to 24 hours at 37° C. in a 5% carbon dioxide atmosphere.
(§5) Following incubation the plates are centrifuged for 5-10 minutes at 1000 rpm (˜200×g) at 4° C. The cell-free culture supernatant is removed with a sterile polypropylene pipet and transferred to sterile polypropylene tubes. Samples are maintained at −30 to −70° C. until analysis. The samples are analyzed for interferon (α) and for tumor necrosis factor (α) by ELISA.
Interferon (α) concentration is determined by ELISA using a Human Multi-Species kit from PBL Biomedical Laboratories, New Brunswick, N.J. Results are expressed in pg/mL.
(§6) The table below lists the lowest concentration found to induce interferon and the lowest concentration found to induce tumor necrosis factor for each compound.

[1] = system: tumor necrosis factor (α); assay: Cytokine Induction in Human Cells: tumor necrosis factor (α) secreted by PBMCs, ELISA; assay type: cell-based; set-up: key to Lowest Effective Concentration (μM) Tumor Necrosis Factor: A “*” indicates that no induction was seen at any of the tested concentrations; generally the highest tested concentration was 10 or 30 μM; conditions: incubated 18 to 24 hours, lowest concentration found to induce tumor necrosis factor; for minimal effective concentration: PBMC
From the text: as §1, §2, §3, §4, §5
Tumor necrosis factor (α) (TNF)concentration is determined using ELISA kits available from Genzyme, Cambridge, Mass.; R&D Systems, Minneapolis, Minn.; or Pharmingen, San Diego, Calif. Results are expressed in pg/mL.
as §6

| Structure (SMILES) | melting point | minimal effective concentration (interferon (α)) | minimal effective concentration [1] | Lowest Effective Concentration (μM) Tumor Necrosis Factor [1] | Lowest Effective Concentration (μM) Interferon (interferon (α)) |
| --- | --- | --- | --- | --- | --- |
| Nc1nc2ccccc2c2c1ncn2CCOCc1cn(Cc2ccccc2)nn1 (as salt: hydrochloride) [Example 10, 1-{2-[(1-Benzyl-1H-1,2,3-triazol-4-yl)methoxy]ethyl}-1H-imidazo[4,5-c]quinoline-4-amine hydrochloride] | 209 to 211 °C | – | – | – | – |
| Nc1nc2ccccc2c2c1ncn2CCOCc1cccnc1 (as salt: hydrochloride) [Example 13, 1-[2-(Pyridin-3-ylmethoxy)ethyl]-1H-imidazo[4,5-c]quinolin-4-amine Hydrochloride] | 229 to 231 °C | – | – | – | – |
| Nc1nc2ccccc2c2c1ncn2CCOCC#Cc1ncccn1 (as salt: trifluoroacetate) [Example 17, 1-(2-{[3-(Pyrimidin-2-yl)-2-propynyl]oxy}ethyl)-1H-imidazo[4,5-c]quinolin-4-amine trifluoroacetate] | 214 to 215 °C | – | – | – | – |
| Nc1nc2ccccc2c2c1ncn2CCOCC#Cc1ccncc1 (as salt: trifluoroacetate) [Example 18, 1-(2-{[3-(Pyrid-4-yl)-2-propynyl]oxy}ethyl)-1H-imidazo[4,5-c]quinolin-4-amine bis(trifluoroacetate)] | 135 °C (dec.) | – | – | – | – |
| Nc1nc2ccccc2c2c1ncn2CCOCC#Cc1ccoc1 (as salt: trifluoroacetate) [Example 19, 1-(2-{[3-(Fur-3-yl)-2-propynyl]oxy}ethyl)-1H-imidazo[4,5-c]quinolin-4-amine trifluoroacetate] | 160 to 162 °C | – | – | – | – |
| Nc1nc2ccccc2c2c1ncn2CCOCC#Cc1ccccn1 (as salt: trifluoroacetate) [Example 21, 1-(2-{[3-(Pyrid-2-yl)-2-propynyl]oxy}ethyl)-1H-imidazo[4,5-c]quinolin-4-amine trifluoroacetate] | 129 to 131 °C | – | – | – | – |
| Nc1nc2ccccc2c2c1ncn2CCOCC#Cc1cncc2ccccc12 [Example 1, 1-(2-{[3-(Isoquinolin-4-yl)-2-propynyl]oxy}ethyl)-1H-imidazo[4,5-c]quinolin-4-amine] | – | 0.12 µM | 3.33 µM | – | – |
| Nc1nc2ccccc2c2c1ncn2CCOCC#Cc1nccs1 [Example 2, 1-(2-{[3-(1,3-Thiazol-2-yl)-2-propynyl]oxy}ethyl)-1H-imidazo[4,5-c]quinolin-4-amine] | 157 to 159 °C | 0.37 µM | 10 µM | – | – |
| Nc1nc2ccccc2c2c1ncn2CCOCCCc1cn[nH]c1 [Example 3, 1-{2-[3-(1H-Pyrazol-4-yl)propoxy]ethyl}-1H-imidazo[4,5-c]quinolin-4-amine] | – | 0.04 µM | – | * | – |
| Nc1nc2ccccc2c2c1ncn2CCOCCCc1ncccn1 [Example 4, 1-[2-(3-Pyrimidin-2-ylpropoxy)ethyl]-1H-imidazo[4,5-c]quinolin-4-amine] | 126 to 127 °C | 3.33 µM | – | * | – |
| Nc1nc2ccccc2c2c1ncn2CCOCCCc1ccncc1 [Example 5, 1-[2-(3-Pyridin-4-ylpropoxy)ethyl]-1H-imidazo[4,5-c]quinolin-4-amine] | 160 to 162 °C | 0.04 µM | 0.37 µM | – | – |
| Nc1nc2ccccc2c2c1ncn2CCOCCCc1cccnc1 [Example 8, 1-[2-(3-Pyridin-3-ylpropoxy)ethyl]-1H-imidazo[4,5-c]quinolin-4-amine Bis(trifluoroacetate)] | – | 0.04 µM | 0.12 µM | – | – |
| Nc1nc2ccccc2c2c1ncn2CCOCCCc1cncnc1 [Example 9, 1-[2-(3-Pyrimidin-5-ylpropoxy)ethyl]-1H-imidazo[4,5-c]quinolin-4-amine] | – | 0.12 µM | 3.33 µM | – | – |
| Nc1nc2ccccc2c2c1ncn2CCOCc1cn(Cc2ccccc2)nn1 [Example 10, 1-{2-[(1-Benzyl-1H-1,2,3-triazol-4-yl)methoxy]ethyl}-1H-imidazo[4,5-c]quinoline-4-amine hydrochloride] | – | 1.11 µM | 1.11 µM | – | – |
| Nc1nc2ccccc2c2c1ncn2CCOCc1cc2ccccc2o1 [Example 12, 1-[2-(Benzo[b]furan-2-ylmethoxy)ethyl]-1H-imidazo[4,5-c]quinolin-4-amine] | – | 1.11 µM | – | * | – |
| Nc1nc2ccccc2c2c1ncn2CCOCc1cccnc1 [Example 13, 1-[2-(Pyridin-3-ylmethoxy)ethyl]-1H-imidazo[4,5-c]quinolin-4-amine Hydrochloride] | – | 0.37 µM | 1.11 µM | – | – |
| Nc1nc2ccccc2c2c1ncn2CCOCC#Cc1ncccn1 [Example 17, 1-(2-{[3-(Pyrimidin-2-yl)-2-propynyl]oxy}ethyl)-1H-imidazo[4,5-c]quinolin-4-amine trifluoroacetate] | – | 0.37 µM | 0.37 µM | – | – |
| Nc1nc2ccccc2c2c1ncn2CCOCC#Cc1ccncc1 [Example 18, 1-(2-{[3-(Pyrid-4-yl)-2-propynyl]oxy}ethyl)-1H-imidazo[4,5-c]quinolin-4-amine bis(trifluoroacetate)] | – | 0.37 µM | 10 µM | – | – |
| Nc1nc2ccccc2c2c1ncn2CCOCC#Cc1ccoc1 [Example 19, 1-(2-{[3-(Fur-3-yl)-2-propynyl]oxy}ethyl)-1H-imidazo[4,5-c]quinolin-4-amine trifluoroacetate] | – | 0.12 µM | 3.33 µM | – | – |
| Nc1nc2ccccc2c2c1ncn2CCOCC#Cc1csc(C=O)c1 [Example 20, 4-{3-[2-(4-Amino-1H-imidazo[4,5-c]quinolin-1-yl)ethoxy]-propyn-1-yl}thiophen-2-ylcarboxaldehyde trifluoroacetate] | – | 0.12 µM | 3.33 µM | – | – |
| Nc1nc2ccccc2c2c1ncn2CCOCC#Cc1ccccn1 [Example 21, 1-(2-{[3-(Pyrid-2-yl)-2-propynyl]oxy}ethyl)-1H-imidazo[4,5-c]quinolin-4-amine trifluoroacetate] | – | 1.11 µM | 10 µM | – | – |
| CC(Cn1cnc2c(N)nc3ccccc3c21)OCC1CCCO1 (centres unmarked) [Example 22] | – | 1.11 µM | 10 µM | – | – |
| CC(C)C(COc1ncccc1[N+](=O)[O-])n1cnc2c(N)nc3ccccc3c21 (centres unmarked) [Example 23] | – | 1.11 µM | – | * | – |
| CC(C)C(COCc1csc2ccc(Cl)cc12)n1cnc2c(N)nc3ccccc3c21 (centres unmarked) [Example 24] | – | – | – | * | * |
| CC(Cn1cnc2c(N)nc3ccccc3c21)OCc1csc2ccc(Cl)cc12 (centres unmarked) [Example 25] | – | 10 µM | – | * | – |
| CC(Cn1cnc2c(N)nc3ccccc3c21)Oc1ncccc1[N+](=O)[O-] (centres unmarked) [Example 26] | – | 1.11 µM | – | * | – |
| CC(C)C(COc1ccccn1)n1cnc2c(N)nc3ccccc3c21 (centres unmarked) [Example 27, 1-{2-Methyl-1-[(pyrid-2-yloxy)methyl]propyl}-1H-imidazo[4,5-c]quinoline-4-amine trifluoroacetate] | – | 1.11 µM | – | * | – |
| CC(Cn1cnc2c(N)nc3ccccc3c21)Oc1ccc2[nH]c3ccccc3c2c1 (centres unmarked) [Example 29, 1-[2-(9H-carbazol-3-yloxy)propyl]-1H-imidazo[4,5-c]quinolin-4-amine trifluoroacetate] | – | 1.11 µM | – | * | – |
| CCCCc1nc2c(N)nc3ccccc3c2n1CCOCCCc1cccnc1 [Example 35, 2-Butyl-1-[2-(3-pyridin-3-ylpropoxy)ethyl]-1H-imidazo[4,5-c]quinoline-4-amine] | – | 0.01 µM | 0.12 µM | – | – |
| Cc1nc2c(N)nc3c(c2n1CCOCCCc1cccnc1)CCCC3 [Example 37, 2-methyl-1-[2-(3-pyridin-3-ylpropoxy)ethyl]-6,7,8,9-tetrahydro-1H-imidazo[4,5-c]quinolin-4-amine] | 140 to 141 °C | – | – | – | – |
